ChEMBL document CHEMBL2021853, “Discovery of 1,2,4-triazine derivatives as adenosine A(2A) antagonists using structure based drug design” (J Med Chem, 2012)

Legend:
Adenosine receptor A1 = target: T1, Adenosine receptor A1 (Homo sapiens, UniProt P30542)
T1 sequence (P30542 whole entry): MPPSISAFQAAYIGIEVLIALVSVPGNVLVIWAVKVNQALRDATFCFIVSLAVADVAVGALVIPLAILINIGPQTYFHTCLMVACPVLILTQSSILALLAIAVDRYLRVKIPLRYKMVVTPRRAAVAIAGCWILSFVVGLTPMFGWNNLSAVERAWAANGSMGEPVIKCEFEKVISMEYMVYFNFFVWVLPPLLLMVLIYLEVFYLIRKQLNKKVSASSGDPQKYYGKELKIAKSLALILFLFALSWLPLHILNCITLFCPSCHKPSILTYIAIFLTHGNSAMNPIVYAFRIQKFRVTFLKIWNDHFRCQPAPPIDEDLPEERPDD

Liver microsomes = experiment: Half life in rat liver microsomes at 1 uM
[1] = Kinetic solubility of the compound
Plasma = experiment: Plasma protein binding in rat at 10 uM after 6 hrs
[2] = target: T2, Adenosine receptor A3 (Homo sapiens) (UniProt P0DMS8); experiment: Antagonist activity at adenosine A3 receptor; type: functional
T2 sequence (whole entry): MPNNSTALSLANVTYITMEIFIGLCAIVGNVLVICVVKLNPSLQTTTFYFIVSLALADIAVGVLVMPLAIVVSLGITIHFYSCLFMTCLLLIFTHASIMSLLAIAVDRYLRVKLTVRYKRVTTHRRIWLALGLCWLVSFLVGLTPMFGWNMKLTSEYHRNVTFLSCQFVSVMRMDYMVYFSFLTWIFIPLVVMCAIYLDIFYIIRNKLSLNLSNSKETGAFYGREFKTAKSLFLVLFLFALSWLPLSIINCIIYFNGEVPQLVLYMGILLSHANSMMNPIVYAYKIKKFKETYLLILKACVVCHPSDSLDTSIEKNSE

Adenosine receptor A2b = target: T3, Adenosine receptor A2b (Homo sapiens, UniProt P29275); experiment: Inhibition of adenosine A2B receptor
T3 sequence (P29275 whole entry): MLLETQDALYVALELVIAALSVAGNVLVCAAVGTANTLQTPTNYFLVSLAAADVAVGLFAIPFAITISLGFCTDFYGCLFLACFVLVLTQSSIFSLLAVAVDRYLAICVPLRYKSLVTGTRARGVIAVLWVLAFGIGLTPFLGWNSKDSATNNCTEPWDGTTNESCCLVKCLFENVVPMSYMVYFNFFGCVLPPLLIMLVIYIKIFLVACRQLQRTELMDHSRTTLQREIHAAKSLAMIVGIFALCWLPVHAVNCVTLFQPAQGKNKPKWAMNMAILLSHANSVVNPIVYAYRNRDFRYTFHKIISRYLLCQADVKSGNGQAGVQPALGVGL

[3] = Plasma clearance in rat at 1 mg/kg, iv; type: ADME, organism-based; parameters: dose 1 mg/kg, route intravenous
[4] = Volume of distribution at steady state in rat at 1 mg/kg, iv; type: ADME, organism-based; parameters: dose 1 mg/kg, route intravenous; details: in vivo, read-out: Vdss
[5] = Terminal half life in rat at 1 mg/kg, iv; type: ADME, organism-based; parameters: dose 1 mg/kg, route intravenous; details: in vivo, read-out: beta t1/2 (converted)
[6] = AUC (infinity) in rat at 1 mg/kg, iv; type: ADME, organism-based; parameters: dose 1 mg/kg, route intravenous, time infinity; details: plasma
Nucleic Acid = experiment: Ratio of drug level in brain to plasma in rat at 1 mg/kg, iv at 0.5 hrs; type: ADME, organism-based; parameters: dose 1 mg/kg, route intravenous
[7] = Tmax in rat at 2 mg/kg, po; type: ADME, organism-based; parameters: dose 2 mg/kg, route oral; details: in vivo
[8] = Cmax in rat at 2 mg/kg, po; type: ADME, organism-based; parameters: dose 2 mg/kg, route oral; details: in vivo
[9] = Terminal half life in rat at 2 mg/kg, po; type: ADME, organism-based; parameters: dose 2 mg/kg, route oral; details: in vivo, read-out: beta t1/2 (converted)
[10] = Oral bioavailability in rat at 2 mg/kg; type: ADME, organism-based; details: in vivo
Rattus norvegicus [11] = experiment: Reversal of haloperidol-induced catalepsy in po dosed Sprague-Dawley rat administered 30 mins post haloperidol-challenge measured after 1 hr; type: functional
Rattus norvegicus [12] = experiment: Reversal of haloperidol-induced catalepsy in po dosed Sprague-Dawley rat administered 30 mins post haloperidol-challenge measured after 2 hrs; type: functional

Structure (SMILES): Cc1cc(C)cc(-c2nnc(N)nc2-c2ccccc2)c1
- Ki (Adenosine receptor A1): 195 nM
- t1/2 (Liver microsomes): 0.15 h
- Kinetic_solubility [1]: 20 µM
- PPB (Plasma): 98%

Structure (SMILES): Cc1cc(-c2nnc(N)nc2-c2ccccc2)cc(C)c1O
- Ki (Adenosine receptor A1): 16.6 nM
- t1/2 (Liver microsomes): 1.25 h
- PPB (Plasma): 93.3%

Structure (SMILES): Cc1cc(-c2nnc(N)nc2-c2cc(F)cc(F)c2)cc(C)n1
- Ki (Adenosine receptor A1): 170 nM
- t1/2 (Liver microsomes): 1.67 h
- Kinetic_solubility [1]: 45 µM

Structure (SMILES): Nc1nnc(-c2cc(Cl)cc(Cl)c2)c(-c2ccccc2)n1
- t1/2 (Liver microsomes): 1.8 h
- INH [2]: > 10 µM

Structure (SMILES): Cc1cc(-c2nnc(N)nc2-c2ccc(F)cc2)cc(C(F)(F)F)n1
- Ki (Adenosine receptor A1): 117 nM
- t1/2 (Liver microsomes): 1.62 h
- PPB (Plasma): 93%

Structure (SMILES): Cc1cc(-c2nnc(N)nc2-c2ccccc2)cc(C)n1
- Ki (Adenosine receptor A1): 85.1 nM
- t1/2 (Liver microsomes): 1.67 h
- Kinetic_solubility [1]: 40 µM
- PPB (Plasma): 82.1%
- INH [2]: > 10 µM
- Ki (Adenosine receptor A2b): 50.1 nM

Structure (SMILES): Nc1nnc(-c2ccccc2)c(-c2ccccc2)n1
- Ki (Adenosine receptor A1): 275 nM
- t1/2 (Liver microsomes): 0.383 h
- Kinetic_solubility [1]: > 100 µM

Structure (SMILES): Nc1nnc(-c2ccc(O)c(Cl)c2)c(-c2ccccc2)n1
- t1/2 (Liver microsomes): 1.15 h
- Kinetic_solubility [1]: 45 µM
- PPB (Plasma): 98%

Structure (SMILES): Cc1cc(-c2nnc(N)nc2-c2cccc(F)c2)cc(C)n1
- Ki (Adenosine receptor A1): 110 nM
- t1/2 (Liver microsomes): 1.3 h
- PPB (Plasma): 87%

Structure (SMILES): Nc1nnc(-c2cccc(Cl)c2)c(-c2ccccc2)n1
- t1/2 (Liver microsomes): 0.483 h
- PPB (Plasma): 97.9%

Structure (SMILES): Cc1cc(-c2nnc(N)nc2-c2ccccc2)cc(C(F)(F)F)n1
- t1/2 (Liver microsomes): 1.43 h
- PPB (Plasma): 92%
- clearance [3]: 42 mL/min/kg
- Vd [4]: 4.6 L/kg
- half-life [5]: 1.2 h
- AUC(0-inf) [6]: 397 ng·h/mL
- BPR (Nucleic Acid): 3.2
- Tmax [7]: 0.4 h
- Cmax [8]: 244 ng/mL
- half-life [9]: 1.1 h
- bioavailability [10]: 100%
- Activity (Rattus norvegicus [11]): Dose-dependent effect
- ED50 (Rattus norvegicus [11]): 0.2 mg/kg
- Activity (Rattus norvegicus [12]): Dose-dependent effect
- ED50 (Rattus norvegicus [12]): 0.2 mg/kg
